The record followed here is publication PMC6399220, “Engineered XylE as a tool for mechanistic investigation and ligand discovery of the glucose transporters GLUTs” (Cell Discovery, 2019).

Format in all cases: binding
Experiment [1] addresses T1, XylE-WW (xylose:proton symporter XylE) (Escherichia coli, UniProt P0AGF4, G58W/L315W). Nature of the experiment: MST.
In experiment [2] the target is T2, XylE (WT, xylose:proton symporter) (Escherichia coli, UniProt P0AGF4).
T2 sequence (P0AGF4 1-491): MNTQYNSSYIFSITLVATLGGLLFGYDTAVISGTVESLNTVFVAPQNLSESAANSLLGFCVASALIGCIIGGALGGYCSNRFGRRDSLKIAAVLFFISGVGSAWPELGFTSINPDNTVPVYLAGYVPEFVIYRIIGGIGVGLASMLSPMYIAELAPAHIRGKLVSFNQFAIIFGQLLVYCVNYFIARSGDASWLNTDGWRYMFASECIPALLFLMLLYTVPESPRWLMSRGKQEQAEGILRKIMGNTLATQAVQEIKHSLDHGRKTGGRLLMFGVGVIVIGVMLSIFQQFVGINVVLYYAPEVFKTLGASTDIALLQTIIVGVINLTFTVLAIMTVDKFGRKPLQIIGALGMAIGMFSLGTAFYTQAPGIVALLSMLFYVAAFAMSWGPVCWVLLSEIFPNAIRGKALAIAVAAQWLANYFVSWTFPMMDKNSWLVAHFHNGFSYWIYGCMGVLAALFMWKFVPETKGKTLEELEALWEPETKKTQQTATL
Kind of experiment: MST.

The target of experiment [3] is T1, XylE-WW (xylose:proton symporter XylE). Kind of experiment: MST and ITC.
In experiment [4] the target is T2, XylE (WT, xylose:proton symporter). Kind of experiment: ITC (MST almost identical).

The Kd is the concentration at which binding is half-saturated. High values mean weaker binding, low ones tighter binding. For `OC[C@H]1OC(O)[C@H](O)[C@@H](O)[C@@H]1O` (stereo partly drawn) [D-glucose], the equilibrium dissociation constant (Kd) worked out at 27.5 ± 0.5 µM in experiment [1] and 2080 ± 95.7 µM in experiment [2].

For the compound `OC1OC[C@@H](O)[C@H](O)[C@H]1O` (stereo partly drawn) [D-xylose], the figures for the dissociation constant Kd in experiment [3] and in experiment [4] were 14.4 ± 0.2 µM and 843 ± 8 µM, respectively.
